Assay results published in patent US20260083676A1, “SPRAY-DRIED AMORPHOUS SOLID DISPERSIONS AND METHOD FOR PREPARATION” (Merck Patent GMbH, priority 2022, published 2026).

Experiments:
[1] = X-ray powder diffraction and DSC of spray-dried products; type: physicochemical; details: raw material and spray dried dispersion with PVA 3-82; FIG. 24 to 26
Procedure: (§1) Diffractograms of powders were measured using an Miniflex 600 X-ray diffractometer (Rigaku, Japan) with CuKα radiation (λ=1.54 A). Samples were scanned in reflectance mode from 3° to 50° 2θ (deg), with a scan speed of 10° 2θ (deg)/min and a step size of 0.020° 2θ (deg) and results are shown in FIG. 2. The acceleration voltage and current are 45 kV and 15 mA.
The DSC thermograms of the samples as shown in FIG. 3 were collected using a DSC 3 (METTLER, U.S.) under a nitrogen gas flow of 50 ml/min. A total of 2-5 mg sample powder was filled into an aluminum Tzero pan (40 μL) and sealed with an aluminum Tzero lid. The sample was analyzed at a heating rate of 5° C./min from −25° C. to 230° C.
Spray-drying of ASDs has been prepared as described in Example 2, XRD measurements have been performed as described in Example 1.
as §1, with “(deg).” for “(deg) and results are shown in FIG. 2.”

[2] = Dissolution measurement of PROTAC ARV-110 ASD in phosphate buffer pH 6.8; type: physicochemical; details: phosphate buffer pH 6.8, room temperature, 0.2 mg/ml, 120 minutes; FIG. 23
Procedure: For PROTAC ARV-110, the dissolution of the samples was determined at room temperature in phosphate buffer pH 6.8 as dissolution medium. 5 mg of bulk drug or spray dried powder samples equivalent to 5 mg of drug were weighted and placed into a 100 ml of Erlenmeyer flask, subsequently a magnetic stirring bar was added to the Erlenmeyer flask and stirred at 200 rpm, then 25 ml of dissolution medium was added. (concentration: 0.2 mg/ml)
At predetermined time points (5, 10, 20, 40, 60, 90, 120 min), 500 μl of sample were withdrawn from the dissolution vessels and immediately replaced by 500 μl of fresh dissolution medium. The dissolution samples were then filtered through a 0.45 μm filter. The sample is diluted with Eluent B (1:1). Finally, the samples were analyzed towards drug content using HPLC.
A C8-Column (Waters XBridge Column C8, 4.6×50 mm, 3.5 μm) column was used for the quantification.
The eluents are composed as follows: Eluent A: 0.1% formic acid in water; Eluent B: 0.1% formic acid in acetonitrile. Method: linear gradient of 10% to 90% Eluent B in 2 minutes at 1.7 ml/min flow rate.

solid state (XRD) [1]: crystalline
Structure (SMILES): N#Cc1ccc(O[C@H]2CC[C@H](NC(=O)c3ccc(N4CCC(CN5CCN(c6cc7c(cc6F)C(=O)N(C6CCC(=O)NC6=O)C7=O)CC5)CC4)nn3)CC2)cc1Cl (some centres unmarked) [ARV-110]
dissolution [2]: neither the raw PROTAC 1, PROTAC 2 nor ARV110 show any measurable dissolution
